In assay [1] the test system is Human primary T cell. Briefly: IL-2 ELISA, human primary T cell, anti-CD3+CD28+ whole cell assay. The assay is classed as cell-based. The note with it: IL-2 by ELISA, human primary T cells stimulated with anti-CD3+CD28. Here is the method: 2. IL-2 ELISA, Human Primary T Cell, Anti-CD3+CD28+ Assays
Human primary T cells were prepared as follows. Whole blood was obtained from a healthy volunteer, mixed 1:1 with PBS, layered on to Ficoll Hypaque (Amersham Pharmacia Biotech, Piscataway, N.J., Catalog #17-1440-03) in 2:1 blood/PBS:ficoll ratio and centrifuged for 30 minutes at 4° C. at 1750 rpm. The cells at the serum:ficoll interface were recovered and washed twice with 5 volumes of PBS. These freshly isolated human peripheral blood mononuclear cells were cultured in Yssel's medium containing 40 U/mL IL2 in a flask pre-coated with 1 μg/mL αCD3 and 5 μg/mL αCD28 (Anti-Human CD3, BD Pharmingen Catalog #555336, Anti-Human CD28, Beckman Coulter Catalog #1M1376). The cells were stimulated for 3-4 days, then transferred to a fresh flask and maintained in RPMI (RPMI-1640 with L-Glutamine; Mediatech, Inc., Herndon Va., cat. #10-040-CM) with 10% FBS and 40 U/mL IL-2. The primary T-cells were then washed twice with PBS to remove the IL-2.
Human primary T cells (100,000 cells per well) were pre-incubated with or without test compound in Yssel's medium for 1 hr at 37° C. Cells were then stimulated by transferring them to round-bottom 96-well plates pre-coated with 1 μg/ml αCD3 and 5 μg/ml αCD28. For counter assay, cells were instead stimulated by adding 8× stock solutions of PMA and ionomycin in Yssels (for final concentrations of 0.5 ng/ml PMA and 0.1 μM ionomycin, both from Calbiochem). Cells were incubated at 37° C. for 24 hours before 100 μL supernatants were harvested for quantification of IL-2 by ELISA using Human IL-2 Duoset ELISA Kit from R and D Systems, Cat. # DY202E.
(§1) Several subject compounds were tested according to procedures in the “Characterization of Functional Properties” section. PKC kinase activity was measured using the procedure Section A.1 (Protein Kinase C assay) with the appropriate isoform. The whole cell assay was run according to the procedure in Section A.2 (IL-2 ELISA, Human primary T cell, anti-CD3+CD28+ Assays). […] Blank entries indicate that the IC50 was not determined.
A general note: An ELISA detects its analyte on a solid surface through an enzyme-linked reagent.

For assay [2], the target named is T1, PKC-beta (Homo sapiens, UniProt P05771).
T1 construct: purchased Oxford Biomedical Research
As to the kind of experiment: Protein Kinase C assay (fluorescence polarization), PKC-beta. Type of assay: biochemical. Here is the method: (§2) The inhibition of PKC activity was measured by monitoring the production of phosphorylated peptide by fluorescence polarization at different concentrations of the inhibitor. Reactions were carried out in 96-well plate format with a total volume of 20 μL containing 20 mM HEPES, pH 7.4, 5 mM MgCl2, 0.2 mM CaCl2, 1 mM DTT, 0.02% Brij-35, 0.1 mg/mL phosphatidylserine, 0.02 mg/mL dioleoyl-sn-glycerol and 5 μM each of ATP and the peptide substrate. Compounds were first diluted serially in DMSO and then transferred to a solution containing the above concentrations of HEPES, MgCl2, CaCl2, DTT, and Brij-35 to yield 5× compound solutions in 2% DMSO, which was then added to the reaction solution. Reactions were initiated by the addition of PKC at a typical concentration as described in the table below, and then allowed to incubate at room temperature for 20 minutes. At the end of this time, a combination of quench (EDTA) and detection (peptide tracer and antibody) reagents was added using the protocol of Invitrogen P2748 (Carlsbad, Calif.), a Protein Kinase C Fluorescence polarization Assay Kit. After a 30 minute period of incubation, the amount of phosphorylated peptide generated was measured by fluorescence polarization (Ex=485 nm, Em=535 nm) using a Tecan Polarian instrument (Switzerland).
Human recombinant PKC β1 is obtained from Oxford Biomedical Research and is used under the assay conditions as described under Section A.1 above.
as §1
A general note: Fluorescence polarisation rises when a labelled molecule tumbles more slowly, as on binding a larger partner.

The target in assay [3] is T2, PKC-delta (Homo sapiens, UniProt Q05655).
T2 construct: purchased Oxford Biomedical Research
Briefly: Protein Kinase C assay (fluorescence polarization), PKC-delta. The assay is classed as biochemical. Here is the method:
as §2
Human recombinant PKC δ is obtained from Oxford Biomedical Research and is used under the assay conditions as described under Section A.1 above.
as §1

The target in assay [4] is T3, PKC-epsilon (Homo sapiens, UniProt Q02156).
T3 construct: purchased Upstate Biotechnologies, Temecula, CA 14-518
T3 sequence (Q02156 1-737): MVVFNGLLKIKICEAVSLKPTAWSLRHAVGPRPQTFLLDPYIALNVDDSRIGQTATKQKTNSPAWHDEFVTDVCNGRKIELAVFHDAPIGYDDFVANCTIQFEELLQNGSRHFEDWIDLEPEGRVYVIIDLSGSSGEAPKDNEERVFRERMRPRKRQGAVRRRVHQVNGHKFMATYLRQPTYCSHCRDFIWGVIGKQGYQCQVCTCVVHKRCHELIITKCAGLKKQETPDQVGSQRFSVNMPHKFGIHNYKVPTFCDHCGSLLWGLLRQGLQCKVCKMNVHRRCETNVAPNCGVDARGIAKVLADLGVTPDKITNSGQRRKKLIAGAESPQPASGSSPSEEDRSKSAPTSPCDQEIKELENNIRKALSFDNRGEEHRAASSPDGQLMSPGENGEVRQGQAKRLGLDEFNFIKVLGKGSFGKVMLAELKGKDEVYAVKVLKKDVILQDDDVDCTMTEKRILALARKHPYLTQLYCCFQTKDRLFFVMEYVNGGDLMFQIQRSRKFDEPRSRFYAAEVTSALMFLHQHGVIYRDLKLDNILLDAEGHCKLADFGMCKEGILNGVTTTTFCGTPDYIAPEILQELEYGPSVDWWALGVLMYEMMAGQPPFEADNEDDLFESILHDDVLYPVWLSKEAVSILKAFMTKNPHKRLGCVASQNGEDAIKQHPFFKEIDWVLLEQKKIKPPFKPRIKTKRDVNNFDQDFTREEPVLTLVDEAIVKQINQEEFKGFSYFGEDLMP
Briefly: Protein Kinase C assay (fluorescence polarization), PKC-epsilon. Type of assay: biochemical. Here is the method: as §2
Human recombinant PKC […] is obtained from Oxford Biomedical Research and is used under the assay conditions as described under Section A.1 above.
as §1

Assay [5] deals with T4, PKC-theta (Homo sapiens, UniProt Q04759).
T4 construct: purchased Upstate Biotechnologies, Temecula, CA 14-444
Briefly: Protein Kinase C assay (fluorescence polarization), PKC-theta. Type of assay: biochemical. Here is the method: as §2
Human recombinant PKC θ is used under the assay conditions as described above.
as §1

Assay [6] deals with T5, PKC-alpha (Homo sapiens, UniProt P17252).
T5 construct: purchased Oxford Biomedical Research
Briefly: Protein Kinase C assay (fluorescence polarization), PKC-alpha. Type of assay: biochemical. Here is the method:
as §2
Human recombinant PKC α is obtained from Oxford Biomedical Research and is used under the assay conditions as described under Section A.1 above.
as §1

A value given as a limit tells only on which side of the number the result lay.

As a reminder, the IC50 is the point on the concentration scale where inhibition reaches its midpoint.

T1 sequence (P05771 whole entry): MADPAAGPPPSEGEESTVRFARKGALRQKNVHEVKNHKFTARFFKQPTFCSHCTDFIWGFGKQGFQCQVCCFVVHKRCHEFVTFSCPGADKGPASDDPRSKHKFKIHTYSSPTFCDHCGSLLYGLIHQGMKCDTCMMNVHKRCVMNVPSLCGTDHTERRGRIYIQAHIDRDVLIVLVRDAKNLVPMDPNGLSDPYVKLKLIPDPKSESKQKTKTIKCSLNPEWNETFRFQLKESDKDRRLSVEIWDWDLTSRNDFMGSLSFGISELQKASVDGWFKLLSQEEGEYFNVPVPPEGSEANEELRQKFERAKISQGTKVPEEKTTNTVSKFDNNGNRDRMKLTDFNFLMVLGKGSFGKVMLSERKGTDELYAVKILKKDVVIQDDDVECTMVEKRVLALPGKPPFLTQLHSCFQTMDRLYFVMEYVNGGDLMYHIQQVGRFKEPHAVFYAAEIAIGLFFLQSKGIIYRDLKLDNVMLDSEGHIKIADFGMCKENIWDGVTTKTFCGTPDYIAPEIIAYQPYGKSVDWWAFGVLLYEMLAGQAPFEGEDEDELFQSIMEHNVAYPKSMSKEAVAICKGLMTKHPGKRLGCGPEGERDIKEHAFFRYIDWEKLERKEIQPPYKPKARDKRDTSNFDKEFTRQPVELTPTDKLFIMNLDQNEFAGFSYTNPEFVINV
T2 sequence (Q05655 whole entry): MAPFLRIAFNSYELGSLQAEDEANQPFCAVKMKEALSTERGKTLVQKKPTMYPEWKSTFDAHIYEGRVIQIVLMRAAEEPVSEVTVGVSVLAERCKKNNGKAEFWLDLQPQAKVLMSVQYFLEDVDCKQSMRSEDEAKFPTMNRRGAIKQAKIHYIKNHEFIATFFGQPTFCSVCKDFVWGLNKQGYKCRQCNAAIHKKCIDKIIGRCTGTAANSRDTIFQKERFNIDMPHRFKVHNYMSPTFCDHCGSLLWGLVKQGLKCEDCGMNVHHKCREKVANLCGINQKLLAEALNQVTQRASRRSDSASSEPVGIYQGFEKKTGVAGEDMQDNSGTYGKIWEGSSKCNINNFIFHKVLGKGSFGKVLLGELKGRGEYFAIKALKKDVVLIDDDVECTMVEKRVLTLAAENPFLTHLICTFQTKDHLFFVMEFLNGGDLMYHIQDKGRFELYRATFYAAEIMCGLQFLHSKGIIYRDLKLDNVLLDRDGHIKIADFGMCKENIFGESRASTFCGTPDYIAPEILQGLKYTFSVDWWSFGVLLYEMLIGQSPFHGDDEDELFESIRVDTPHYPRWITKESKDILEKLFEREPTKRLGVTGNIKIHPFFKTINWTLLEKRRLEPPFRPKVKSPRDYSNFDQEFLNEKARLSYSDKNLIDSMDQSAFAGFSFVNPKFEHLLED
T4 sequence (Q04759 whole entry): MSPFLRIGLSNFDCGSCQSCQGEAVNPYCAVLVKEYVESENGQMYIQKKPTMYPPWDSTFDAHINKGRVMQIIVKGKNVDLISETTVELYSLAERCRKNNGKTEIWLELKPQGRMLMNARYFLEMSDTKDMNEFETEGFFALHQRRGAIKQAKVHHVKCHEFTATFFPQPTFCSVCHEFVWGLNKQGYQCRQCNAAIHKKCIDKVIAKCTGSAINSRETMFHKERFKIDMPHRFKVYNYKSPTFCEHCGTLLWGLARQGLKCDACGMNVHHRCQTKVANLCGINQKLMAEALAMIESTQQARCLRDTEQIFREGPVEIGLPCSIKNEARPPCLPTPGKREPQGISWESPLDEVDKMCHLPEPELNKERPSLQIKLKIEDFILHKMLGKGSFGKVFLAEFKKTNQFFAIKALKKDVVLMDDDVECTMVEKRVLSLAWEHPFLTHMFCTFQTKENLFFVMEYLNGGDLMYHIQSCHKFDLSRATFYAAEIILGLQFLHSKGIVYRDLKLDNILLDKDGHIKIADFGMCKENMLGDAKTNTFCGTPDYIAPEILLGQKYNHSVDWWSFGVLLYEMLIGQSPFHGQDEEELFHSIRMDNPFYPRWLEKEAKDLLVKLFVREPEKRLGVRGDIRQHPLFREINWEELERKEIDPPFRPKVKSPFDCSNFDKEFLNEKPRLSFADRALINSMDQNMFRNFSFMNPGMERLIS

On to `CC1Oc2ccc(Nc3ncc(F)c(NC4CC(C)(C)N(C)C(C)(C)C4)n3)cc2-n2nnnc21` (stereo not drawn) [Compound 1-18], for which the IC50 in assay [1] (T-cell), in assay [2], in assay [3], in assay [4], in assay [5] and in assay [6] was < 0.25 µM throughout.
Take `CC1C[C@@H](CNc2nc(Nc3ccc4c(c3)-n3nnnc3C(C)(C)O4)ncc2F)C(C)(C)N1` (stereo partly drawn) [Compound 2-7, N2-(4,4-dimethyl-4H-benzo[b]tetrazolo[1,5-d][1,4]oxazin-8-yl)-5-fluoro-N4-(((3S)-2,2,5-trimethylpyrrolidin-3-yl)methyl)pyrimidine-2,4-diamine]: the IC50 in assay [1], in assay [2], in assay [3], in assay [4], in assay [5] and in assay [6] was < 0.25 µM each time.
Consider `CN1C(C)(C)CC(Nc2nc(Nc3ccc4c(c3)-n3nnnc3C(F)(F)O4)ncc2F)CC1(C)C` [Compound 1-6, N2-(4,4-difluoro-4H-benzo[b]tetrazolo[1,5-d][1,4]oxazin-8-yl)-5-fluoro-N4-(1,2,2,6,6-pentamethylpiperidin-4-yl)pyrimidine-2,4-diamine], for which the IC50 in assay [1] (T-cell) is 0.25 to 0.5 µM; in assay [2], < 0.25 µM; in assay [3] it was < 0.25 µM; in assay [4], < 0.25 µM; in assay [5], < 0.25 µM; in assay [6] it was < 0.25 µM.
As to `CN1C(C)(C)CC(Nc2nc(Nc3ccc4c(c3)-n3nnnc3C3(CCC3)O4)ncc2F)CC1(C)C` [Compound 1-12, N2-{2,1-Spiro-butane-4H-tetrazolo[5,1-c][1,4]benzoxazin-8-yl}-5-fluoro-N4-(1,2,2,6,6-pentamethylpiperidin-4-yl)-2,4-pyrimidinediamine], the IC50 in assay [1], in assay [2], in assay [3], in assay [4], in assay [5] and in assay [6] was < 0.25 µM throughout.
As to `CN1C(C)(C)CC(Nc2nc(Nc3ccc4c(c3)-n3nnnc3CO4)ncc2F)CC1(C)C` [Compound 1-2, N2-(4H-benzo[b]tetrazolo[1,5-d][1,4]oxazin-8-yl)-5-fluoro-N4-(1,2,2,6,6-pentamethylpiperidin-4-yl)pyrimidine-2,4-diamine], the IC50 in assay [1] (T-cell), in assay [2], in assay [3], in assay [4], in assay [5] and in assay [6] was < 0.25 µM in each case.

The record behind these values is patent US9453028B2, “Protein kinase C inhibitors and uses thereof” (Rigel Pharmaceuticals, Inc., priority 2009, dated 2016).
